Assay results as given in US5149777A, “Human insulin analogs and preparations containing them” (Novo Nordisk A/S, priority 1991, dated 1992).

What was measured:
[1] = target: insulin receptors of isolated rat hepatocytes (Rattus norvegicus, UniProt P15127)
Procedure: (§1) The biological activity in vitro was determined by measuring the binding affinity to the insulin receptors of isolated rat adipocytes and hepatocytes essentially as described in J. Gliemann, S. Gammeltoft: Diabetologia 10, 105-113 (1974).

[2] = target: T1, insulin receptors of isolated rat adipocytes (Rattus norvegicus, UniProt P15127); assay: Binding affinity to insulin receptors of isolated rat adipocytes; settings: relative to semisynthetic human insulin, potency set to 100%
T1 construct: endogenous in cells; host or cells: isolated rat adipocytes
T1 sequence (P15127 27-759 limits assumed): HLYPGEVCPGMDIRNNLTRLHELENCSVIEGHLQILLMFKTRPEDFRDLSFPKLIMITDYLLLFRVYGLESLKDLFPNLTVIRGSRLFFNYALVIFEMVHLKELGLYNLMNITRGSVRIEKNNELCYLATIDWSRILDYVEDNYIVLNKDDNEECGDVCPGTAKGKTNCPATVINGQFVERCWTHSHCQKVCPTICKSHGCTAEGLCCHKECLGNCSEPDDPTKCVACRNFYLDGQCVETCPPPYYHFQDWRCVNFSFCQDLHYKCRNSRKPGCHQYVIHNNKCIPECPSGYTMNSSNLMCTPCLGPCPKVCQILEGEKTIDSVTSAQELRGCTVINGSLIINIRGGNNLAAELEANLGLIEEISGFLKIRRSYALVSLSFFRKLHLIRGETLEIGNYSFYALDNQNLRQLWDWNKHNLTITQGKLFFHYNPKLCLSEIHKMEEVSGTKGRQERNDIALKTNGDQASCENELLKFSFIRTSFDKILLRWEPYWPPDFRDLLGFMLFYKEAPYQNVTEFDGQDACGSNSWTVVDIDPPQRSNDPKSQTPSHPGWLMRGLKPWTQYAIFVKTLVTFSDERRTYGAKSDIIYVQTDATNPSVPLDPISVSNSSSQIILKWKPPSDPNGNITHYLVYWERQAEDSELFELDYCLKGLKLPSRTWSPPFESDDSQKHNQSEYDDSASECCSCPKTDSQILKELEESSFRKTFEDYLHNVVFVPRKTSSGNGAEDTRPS
T1 sequence (P15127 764-1383 partner limits assumed): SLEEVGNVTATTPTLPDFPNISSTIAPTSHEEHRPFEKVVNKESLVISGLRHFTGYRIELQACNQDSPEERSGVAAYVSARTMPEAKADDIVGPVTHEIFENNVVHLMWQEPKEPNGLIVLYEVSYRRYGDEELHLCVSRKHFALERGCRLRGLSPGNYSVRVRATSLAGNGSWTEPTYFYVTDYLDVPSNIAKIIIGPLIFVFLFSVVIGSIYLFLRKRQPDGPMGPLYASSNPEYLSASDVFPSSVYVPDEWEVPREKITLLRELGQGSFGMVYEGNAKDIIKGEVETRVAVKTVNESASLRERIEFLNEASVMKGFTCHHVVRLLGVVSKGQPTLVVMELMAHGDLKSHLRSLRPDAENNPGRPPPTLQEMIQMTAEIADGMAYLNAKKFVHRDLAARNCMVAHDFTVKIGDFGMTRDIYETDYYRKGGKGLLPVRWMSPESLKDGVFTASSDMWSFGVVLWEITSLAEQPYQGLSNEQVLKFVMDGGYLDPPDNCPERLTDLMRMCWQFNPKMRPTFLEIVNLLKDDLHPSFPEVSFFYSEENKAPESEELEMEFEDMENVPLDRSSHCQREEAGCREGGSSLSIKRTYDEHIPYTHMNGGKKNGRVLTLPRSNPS
Procedure: as §1

Chain of insulin receptors of isolated rat hepatocytes (P15127 27-759 limits assumed): as the sequence (P15127 27-759 limits assumed) above
Chain of insulin receptors of isolated rat hepatocytes (P15127 764-1383 partner limits assumed): as the sequence (P15127 764-1383 partner limits assumed) above

Substance | Biological activity in vitro (binding affinity), Hepatocytes [1] | Biological activity in vitro (binding affinity), Adipocytes [2]
[His^B25 ]-human insulin | 142% | 150%
[His^B25, Asp^B28 ]-des[Thr^B30 ]-human insulin | 135% | 130%
[Tyr^B25 ]-human insulin | 222% | 356%
[Tyr^B25, Asp^B28 ]-human insulin | 138% | 201%
